Test results published in US12064444B2, “Application of tannic acid in preparation of medicament against respiratory viruses” (priority 2020, dated 2024).

Tested on: SARS-CoV-2 virus

Compound: CCC(CC)COC(=O)[C@H](C)N[P@](=O)(OC[C@H]1O[C@@](C#N)(c2ccc3c(N)ncnn23)[C@H](O)[C@@H]1O)Oc1ccccc1 [Remdesivir]
- SI (Selection Index = TC50/IC50): 162.21

Compound: O=C(OC[C@H]1O[C@@H](OC(=O)c2cc(O)c(O)c(OC(=O)c3cc(O)c(O)c(O)c3)c2)[C@H](OC(=O)c2cc(O)c(O)c(OC(=O)c3cc(O)c(O)c(O)c3)c2)[C@@H](OC(=O)c2cc(O)c(O)c(OC(=O)c3cc(O)c(O)c(O)c3)c2)[C@@H]1OC(=O)c1cc(O)c(O)c(OC(=O)c2cc(O)c(O)c(O)c2)c1)c1cc(O)c(O)c(OC(=O)c2cc(O)c(O)c(O)c2)c1 [Tannic acid, tannic acid]
- SI (Selection Index = TC50/IC50): 7343.75
